Reference: US20240400572A1, “COMPOUNDS AND METHODS FOR TREATING CANCERS THAT ARE MGMT DEFICIENT REGARDLESS OF MMR STATUS” (Yale University, priority 2021, published 2024)

Key:
[1] = system: LN229 MGMT−/MMR− cells; assay: Short-term cell viability assay; assay type: cell-based, human; settings: Homo sapiens, LN-229
Description: (§1) Short-term Cell Viability Assay. Cells were seeded in 96-well plates at 1000 or 2000 cells/well and allowed to adhere at 23° C. for 60 min and then incubated overnight at 37° C. Cells were treated with indicated concentrations of compounds in triplicate for 4-6 days prior to fixation with 3.7% paraformaldehyde and nuclear staining with 1 μg/mL Hoechst 33342 dye. Cells were imaged on a Cytation 3 imaging reader (BioTek) and quantified using CellProfiler software.
Statistical analysis. Statistical analysis was performed using GraphPad Prism software. Data are presented as mean or median±SD or SEM as indicated. For in vitro short-term growth delay experiments, IC50 values were determined from the nonlinear regression equation, [inhibitor] vs normalized response with variable slope. […]
We synthesized the imidazotetrazine 4a (KL-50) and the triazene 4b (KL-85), as vehicles to deliver 2-fluoroethyl diazonium (4c), and a series of related agents to probe structure-activity relationships in tissue culture (FIG. Z1, D and F). […] We evaluated the cytotoxicity of our compounds in short-term cell viability assays against four isogenic LN229 glioblastoma cell lines engineered to be proficient or deficient in MGMT and/or MMR activity, using short hairpin RNAs (shRNAs) targeting MSH2 (referred to as MGMT+/−, MMR+/− cells hereafter; FIG. ZS2A). […]

[2] = system: BJ fibroblast cells; assay: Short-term cell viability in normal fibroblasts; assay type: cell-based, human; settings: KL-50 compared with TMZ
Description: Cell Culture. LN229 MGMT− and MGMT+ cell lines were a gift from B. Kaina (Johannes Gutenberg University Mainz, Mainz, Germany) and grown in DMEM with 10% FBS (Gibco). DLD1 BRCA2+/− and BRCA2−/− cell lines (Horizon Discovery, Cambridge, UK) were grown in RPMI 1640 with 10% FBS. HCT116 MLH1−/− and HCT116+Chr3 cell lines were a gift from T. Kunkel (National Institute of Environmental Health Sciences, Durham, NC) and grown in DMEM with 10% FBS, with […] G418 (Sigma) for HCT116+Chr3 cells. PD20 cell lines complemented with empty vector (+EV), wildtype FANCD2 (+FD2), or K561R ubiquitination-mutant FANCD2 (+KR) were a gift from G. Kupfer and P. Glazer (Yale University, New Haven, CT) and growth in DMEM with 10% FBS. PEO1 and PEO4 cell lines were a gift from T. Taniguchi (Fred Hutchinson Cancer Research Center, Seattle, WA) and were grown in DMEM with 10% FBS. BJ fibroblasts (normal human fibroblast cells) were purchased from ATCC (CRL-2522) and grown in DMEM with 10% FBS. […] All human cell lines were validated by short tandem repeat profiling (excluding BJ fibroblasts which were used within 6 passages of receiving from ATCC) and confirmed negative for mycoplasma by quantitative RT-PCR.
Short-term Cell Viability Assay. […] Cells were imaged on a Cytation 3 imaging reader (BioTek) and quantified using CellProfiler software.

[3] = system: linearized pUC19 plasmid DNA; assay: In vitro DNA cross-linking assay; assay type: biochemical; settings: 100 μM, 6-36 hours
Description: Plasmid Linearization Assay. To set up the linearization reactions, 20 units of EcoRI-HF (New England Biolabs) was mixed with 20 μg 2686 bp pUC19 vector DNA in CutSmart buffer (New England Biolabs), pH 7.9, in a total volume of 1000 μL for 30 min at 37° C. The CutSmart buffer contains 50 mM potassium acetate, 20 mM Tris acetate, 10 mM magnesium acetate, and 100 μg/mL BSA. The reacted DNA was then purified using PCR cleanup kit and quantified using the NanoDrop One (Thermo Fisher). The DNA was then stored at −20° C. before use in in vitro DNA cross-linking assays or melting temperature analysis.
In Vitro DNA Cross-linking Assays. Linearized pUC19 DNA, prepared as described above, was used for in vitro DNA cross-linking assays. For each condition, 200 ng of linearized pUC19 DNA (15.4 μM base pairs) was incubated with the indicated concentration of drug in 20 μL. Drug stock concentrations were made in DMSO such that each reaction contained a fixed 5% DMSO concentration. Reactions were conducted in 100 mM Tris buffer (pH 7.4). Cisplatin (Sigma) and DMSO vehicle were used as positive and negative controls, respectively. Reactions were conducted between 3-96 h at 37° C. The DNA was stored at −80° C. until electrophoretic analysis. For gel electrophoresis, DNA concentration was preadjusted to 10 ng/μL. […]

[4] = system: WT and XPA-deficient MEFs; assay: Short-term cell viability assay in NER isogenic MEFs; assay type: cell-based, mouse; settings: WT versus XPA-deficient MEFs, ± MGMT depletion with O6BG
Description: FIGS. ZS5A-ZS5D. […] Columns, mean; error bars, SD; n=2 independent analyses. For (FIG. ZS5A) and (FIG. ZS5C), points, mean; error bars, SD; n=3 technical replicates.
as §1

## NC(=O)c1ncn2c(=O)n(CCF)nnc12 [KL-50, 3-(2-fluoroethyl)-4-oxo-3H,4H-imidazo[4,3-d][1,2,3,5]tetrazine-8-carboxamide]
[1]
  IC50: ~20 µM
[2]
  cytotoxicity in normal human fibroblast cells (in words): no increase in toxicity
[3]
  ICLs in plasmid DNA (in words): possessed ICLs, with delayed rates of formation relative to 12b
[4]
  sensitivity of XPA deficient cells (in words): absence of additional sensitivity
